# Results as given in patent US12377095B2, “Use of ligustrazine nitrone derivatives in treatment and prevention of diabetic complication diseases” (QINGDAO HAILAN PHARMACEUTICALS CO., LTD., priority 2019, dated 2025).
# Assays:
# [1] = system: STZ-induced DKD rats; assay: Retinopathy of STZ-induced DKD rats; assay type: in vivo, rat; conditions: DKD rats after treatment, Table 1 (FIG. 5)
# Experimental: (§1) SD rats (200±10 g) were used as model animals, which were fasted for 12 h before injection. STZ was dissolved in citrate buffer at 1% concentration, and rats were fasted and intraperitoneally injected with 55 mg/kg STZ and placed in the cage, the rats being ensured with adequate water intake for 24 h. STZ injections need to be fast and complete within 10 minutes of injection. The normal control group was injected with an equal volume of pH 4.5 citric acid-sodium citrate buffer. The state of the animals (multiple drinking and polyuria) was observed. After 3 weeks of STZ injection, blood was collected from the tail vein, and fasting blood glucose ≥16.7 mmol/L was measured as the standard for diabetic nephropathy in rats.
# (§2) DKD rats were randomly assigned to 6 groups and given with different drugs. After 6 weeks of administration, the experiment was terminated and the protective effect of the drug on DKD rats was observed.
# During the experiment, the retinopathy of rats was observed during daily administration, and the dates of retinopathy in different groups of rats were recorded.
# [2] = system: STZ-induced DKD rats; assay: Blood glucose and urine protein in STZ-induced DKD rats; assay type: in vivo, rat
# Experimental: as §1, §2
# During the experiment, the blood glucose of the rats was monitored after the completion of the modeling and after the completion of the administration, and urine protein was collected once at 24 hour.
# [3] = system: STZ-induced DKD rats; assay: Serum iron content of STZ-induced DKD rats; assay type: in vivo, rat
# Experimental: Before the injection, the rats were fasted for 12 hours without water. After weighing, the rats were injected with 55 mg/kg STZ intraperitoneally (STZ needs to be injected quickly, and the injection was completed within 10 minutes), and then returned to the cage to ensure that the rats had sufficient drinking water for 24 hours. Rats were injected with an equal volume of citrate buffer (pH 4.5). After STZ injection for 3 weeks, blood was collected from the tail vein, and blood glucose ≥16.7 mmol/L was used as the criteria for the standard of the rats.
# The route of administration is intragastric administration. TBN was administered twice a day (fixed at 9:00-10:00 am and 3:00-4:00 pm), and Losartan was administered once a day (fixed at 9:00-10:00 am) continuously for 6 weeks.
# At the end of the experiment, after rats were anesthetized, blood was taken from the abdominal aorta. After standing for 1 hour, the rats were centrifuged at 3000 rpm for 10 minutes and stored in aliquots at −80° C. An automatic biochemical analyzer was used to detect the content of iron ions in the serum.
# [4] = system: db/db mice; assay: 24 h urine microalbumin in db/db mice; assay type: in vivo, mouse; conditions: TBN 10, 30, 60 mg/kg, end of 6 weeks; especially 30 and 60 mg/kg (P<0.001)
# Excerpt: db/db mice are congenital obese type 2 DKD mice with spontaneous mutations in the leptin receptor (Leptin receptor, Lepr) due to a point mutation in the leptin receptor gene GT located on chromosome 4. The course of polyphagia, polyuria, diabetes and hyperglycemia is similar to that of humans, and it is currently the most widely used type 2 spontaneous animal model of DKD. The db/db mice have a series of complications with the aggravation of diabetes. The main pathological changes of renal tissue are the expansion of the glomerular mesangial interstitium, the thickening of the glomerular basement membrane, and the excessive accumulation of extracellular matrix. However, the glomerular mesangium of db/db mice changes relatively slowly, and the glomerular mesangium will not be dissolved or nodular glomerulosclerosis, and there is no progressive renal insufficiency. […]
# db/db mice were tested for 24 h urine microalbumin in the 4th and 6th week after drug treatment. […] The absorbance value (OD value) was measured at 450 nm wavelength; the blank control hole was used for adjusting zero, the microalbuminuria standard concentration was used as the abscissa, the OD value as the ordinate, the standard curve regression equation was calculated, and on the basis of the regression equation and the sample's OD value, the concentration of the sample was determined.
# [5] = system: STZ-induced SHR rats; assay: Serum iron ion content in STZ-induced SHR rats; assay type: in vivo, rat; conditions: TBN group (T60), 60 mg/kg
# Experimental: 6 W-age SHR rats were abstained from food but not water for 12 h before injection, and then intraperitoneally injected with 55 mg/kg STZ after weighing (STZ required for fast injection, to be completed within 10 min), then put back to the cage to ensure that rat has sufficient drinking water in the period of 24 h, and the rats of normal control group were injected with citric acid buffer (pH 4.5) in the same volume. After 3 weeks of STZ injection, retinal venous blood was collected, and blood glucose ≥16.7 mmol/L was used as a molding standard, where the model of SHR rats that meet the above criteria is considered successful.
# The route of administration is intragastrical, TBN is administered twice a day (fixed at 9:00-10:00 am and 3:00-4:00 pm), and Losartan is administered once a day (fixed at 9:00-10:00 am), continuously for 6 weeks.
# At the end of the experiment, after rats were anesthetized, blood was taken from the rear abdominal aortic pulse, allowed to stand for 1 h, centrifuged at 3000 rmp centrifuged for 10 min to collect supernatant, and the iron ion content was measured by using an automated biochemical device and the level of red cells in serum was detected by using kits.
smiles,measurement,setting,value
Cc1nc(C)c(/C=[N+](\[O-])C(C)(C)C)nc1C [TBN],number of retinopathy,[1],reduced
same,time when retinopathy occurred,[1],relatively delayed
same,urinary protein content in urine,"[2]; 24 hour urine, DKD rats",significantly reduced
same,blood glucose,[2]; after 6 weeks of treatment,significantly decreased
same,increase in serum iron content,"[3]; TBN high dose group, P<0.05 vs Vehicle",the most significant
same,serum iron content,"[3]; each administration group of TBN (10, 30, 60 mg/kg), dose-dependent",increased
same,24 h urine microalbumin production,[4],dose-dependently reduced
same,content of iron ions in serum vs model group,[5],significantly increased
